The target in experiment [1] is T1, BRD4-BD1 (Homo sapiens, UniProt O60885).
T1 construct: made in house; host or cells: T7 phage grown in an E. coli host derived from the BL21 strain
Kind of experiment: bromoKdELECT assay for binding affinity to BRD4-BD1. The conditions noted are these: binding to BRD4-BD1, Table 4. The method, then: (§1) Compounds were tested using a bromoKdELECT assay. T7 phage strains displaying bromodomains were grown in parallel in 24-well blocks in an E. coli host derived from the BL21 strain. E. coli were grown to log-phase and infected with T7 phage from a frozen stock (multiplicity of infection=0.4) and incubated with shaking at 32° C. until lysis (90-150 minutes). The lysates were centrifuged (5,000×g) and filtered (0.2 μm) to remove cell debris. Streptavidin-coated magnetic beads were treated with biotinylated small molecule or acetylated peptide ligands for 30 minutes at room temperature to generate affinity resins for bromodomain assays. The liganded beads were blocked with excess biotin and washed with blocking buffer (SeaBlock (Pierce), 1% BSA, 0.05% Tween 20, 1 mM DTT) to remove unbound ligand and to reduce nonspecific phage binding. Binding reactions were assembled by combining bromodomains, liganded affinity beads, and test compounds in 1× binding buffer (17% SeaBlock, 0.33×PBS, 0.04% Tween 20, 0.02% BSA, 0.004% Sodium azide, 7.4 mM DTT). Test compounds were prepared as 1000× stocks in 100% DMSO. Kds were determined using an 11-point 3-fold compound dilution series with one DMSO control point. All compounds for Kd measurements are distributed by acoustic transfer (non-contact dispensing) in 100% DMSO. The compounds were then diluted directly into the assays such that the final concentration of DMSO was 0.09%. All reactions performed in polypropylene 384-well plates. Each was a final volume of 0.02 ml. The assay plates were incubated at room temperature with shaking for 1 hour and the affinity beads were washed with wash buffer (1×PBS, 0.05% Tween 20). The beads were then resuspended in elution buffer (1×PBS, 0.05% Tween […] non-biotinylated affinity ligand) and incubated at room temperature with shaking for 30 minutes. The bromodomain concentration in the eluates was measured by qPCR.

Experiment [2] has as its target T2, progesterone receptor ligand binding domain (LBD) (Homo sapiens, UniProt P06401).
T2 construct: GST-tagged PR LBD, Fluormone tracer, and compound were mixed and incubated for 2 hours; purchased Life Technologies A15905 or a15906
T2 sequence (P06401 679-913 limits assumed): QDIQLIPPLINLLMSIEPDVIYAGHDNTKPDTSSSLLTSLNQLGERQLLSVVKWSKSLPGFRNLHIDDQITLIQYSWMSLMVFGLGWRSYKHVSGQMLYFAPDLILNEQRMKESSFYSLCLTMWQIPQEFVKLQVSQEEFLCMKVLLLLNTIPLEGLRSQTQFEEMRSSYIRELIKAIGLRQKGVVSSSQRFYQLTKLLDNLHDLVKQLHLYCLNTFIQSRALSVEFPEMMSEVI
The experiment is described as follows: FP assay for binding affinity to progesterone receptor (PolarScreen Progesterone Receptor Competitor Assay Kit). The note with it: fluorescence polarization, GST-tagged PR LBD, Table 13. The method, then: Compounds were tested using the PolarScreen™ Progesterone Receptor Competitor Assay Kit (Life Technologies Cat #A15905 or a15906), as per the manufacturer's instructions. Briefly, GST-tagged PR LBD, Fluormone tracer, and compound were mixed and incubated for 2 hours at room temperature in the dark. Following incubation, the plates were spun at 3000×g for 30 seconds, then sealed with an optical adhesive cover, and fluorescence polarization was measured using appropriate excitation and emission filters with an EnVision Plate Reader (Perkin Elmer). Compound concentration vs. mP value were plotted in Prism (GraphPad). A four-parameter non-linear regression curve fit was applied to dose-response data to determine the half-maximal inhibitory concentration (IC50) for each test compound.
For orientation: In fluorescence polarisation assays a small probe gives low polarisation when free and higher when bound to something large.

Experiment [3] deals with T3, progesterone receptor (Homo sapiens, UniProt P06401).
T3 sequence (P06401 679-933 limits assumed): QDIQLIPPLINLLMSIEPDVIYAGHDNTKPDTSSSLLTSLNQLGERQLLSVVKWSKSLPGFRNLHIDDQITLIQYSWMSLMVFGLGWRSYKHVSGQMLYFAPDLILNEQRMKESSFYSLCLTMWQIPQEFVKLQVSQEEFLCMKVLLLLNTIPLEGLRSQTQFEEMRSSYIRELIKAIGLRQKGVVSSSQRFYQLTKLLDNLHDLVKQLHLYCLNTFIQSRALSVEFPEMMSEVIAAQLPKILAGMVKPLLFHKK
Kind of experiment: PR Human Progesterone NHR Binding (Agonist Radioligand) Assay. The note with it: binding to the progesterone receptor, cytosolic fractions of T47D cells, Table 12. The method, then: Compounds were tested using the PR Human Progesterone NHR Binding (Agonist Radioligand) Assay, Cerep at Eurofins Discovery using a modified version of the protocol from Sarup et al. (Cancer Res 1988; 48:5071-5078). Briefly, cytosolic fractions of T47D cells were incubated with 0.5 nM [^3H]progesterone for 1 hour at 4° C. in the absence or presence of the test compound. Nonspecific binding was determined in the presence of 1 μM promegestone. Reactions were subjected to scintillation counting. Results are expressed as a percent inhibition of the control radioligand specific binding.

In experiment [4] the target is T4, BRD4-BD2 (Homo sapiens, UniProt O60885).
T4 construct: made in house; host or cells: T7 phage grown in an E. coli host derived from the BL21 strain
Kind of experiment: bromoKdELECT assay for binding affinity to BRD4-BD2. The conditions noted are these: binding to BRD4-BD2, Table 5. The method, then: as §1, with “[…])” for “μm)”

Consider seven compounds from patent publication US20260109707A1, “HETEROBIFUNCTIONAL COMPOUNDS AND METHODS OF TREATING DISEASE” (Halda Therapeutics OpCo. Inc., priority 2022, published 2026).

For the compound `Cc1sc2c(c1C)C(c1ccc(Cl)cc1)=N[C@@H](CC(=O)NCCOC1CCN(c3ccc(C(=O)N[C@H]4CC[C@H](Oc5ccc(C#N)c(Cl)c5)CC4)nn3)CC1)c1nnc(C)n1-2` [I-1, N-[4-(3-chloro-4-cyano-phenoxy)cyclohexyl]-6-[4-[2-[[2-[(9S)-7-(4-chlorophenyl)-4,5,13-trimethyl-3-thia-1,8,11,12-tetrazatricyclo[8.3.0.0^2,6]trideca-2(6),4,7,10,12-pentaen-9-yl]acetyl]amino]ethoxy]-1-piperidyl]pyridazine-3-carboxamide], the dissociation constant (Kd) in experiment [1] fell in the range of 50 to 500 nM.
As for `Cc1sc2c(c1C)C(c1ccc(Cl)cc1)=N[C@@H](CC(=O)NCCOCCOCCOC1CCN(c3ccc(C(=O)N[C@H]4CC[C@H](Oc5ccc(C#N)c(Cl)c5)CC4)nn3)CC1)c1nnc(C)n1-2` [I-2, N-[4-(3-chloro-4-cyano-phenoxy)cyclohexyl]-6-[4-[2-[2-[2-[[2-[(9S)-7-(4-chlorophenyl)-4,5,13-trimethyl-3-thia-1,8,11,12-tetrazatricyclo[8.3.0.0^2,6]trideca-2(6),4,7,10,12-pentaen-9-yl]acetyl]amino]ethoxy]ethoxy]ethoxy]-1-piperidyl]pyridazine-3-carboxamide], in experiment [2], the 50% inhibitory concentration (IC50) was in the range of 50 to 500 nM. In addition, the dissociation constant Kd in experiment [3] is 50 to 500 nM.
In the case of `CCNC(=O)C[C@@H]1N=C(c2ccc(CCCOC3CCN(c4ccc(C(=O)N[C@H]5CC[C@H](Oc6ccc(C#N)c(Cl)c6)CC5)nn4)CC3)cc2)c2c(sc(C)c2C)-n2c(C)nnc21` [I-17], the figures for the Kd in experiment [4] and in experiment [1] were under 50 nM and 50 to 500 nM, respectively.
As for `CCNC(=O)C[C@@H]1N=C(c2ccc(CC3CCN(c4ccc(C(=O)N[C@H]5CC[C@H](Oc6ccc(C#N)c(Cl)c6)CC5)nn4)CC3)cc2)c2c(sc(C)c2C)-n2c(C)nnc21` [I-20], the Kd in experiment [4] and in experiment [1] was 50 to 500 nM throughout.
As to `CCNC(=O)C[C@@H]1N=C(c2ccc(N3CC4(C3)CN(c3ccc(C(=O)N[C@H]5CC[C@H](Oc6ccc(C#N)c(Cl)c6)CC5)nn3)C4)cc2)c2c(sc(C)c2C)-n2c(C)nnc21` [I-24], the dissociation constant Kd in experiment [4] and in experiment [1] was 50 to 500 nM each time.
Turning to `CCNC(=O)C[C@@H]1N=C(c2ccc(OCC3CN(c4ccc(C(=O)N[C@H]5CC[C@H](Oc6ccc(C#N)c(Cl)c6)CC5)nn4)C3)cc2)c2c(sc(C)c2C)-n2c(C)nnc21` [I-29], the Kd in experiment [3] is 50 to 500 nM.
With `CCNC(=O)C[C@@H]1N=C(c2ccc(N3CCC(OC4CCN(c5ccc(C(=O)N[C@H]6CC[C@H](Oc7ccc(C#N)c(Cl)c7)CC6)nn5)CC4)CC3)cc2)c2c(sc(C)c2C)-n2c(C)nnc21` [I-44], the equilibrium dissociation constant (Kd) in experiment [4], in experiment [1] and in experiment [3] was 50 to 500 nM in each case.

As usually defined, the Kd is a measure of binding affinity in units of concentration. The low end stands for a tighter complex, the high end for a looser complex. For orientation: IC50 means the midpoint of a concentration-inhibition curve. High values mean weaker potency in that assay, low ones greater potency in that assay.
